Results published in US6686145B1, “Rigidized trimethine cyanine dyes” (Carnegie Mellon University, priority 1997, dated 2004).
Where no end group is shown, it is not given here. [ ]: non-standard residue; d: D form. Compound III = 6,7,9,10-tetrahydro-2-carboxymethyl-14-sulphonato-16,16,18,18-tetramethyl-7aH,8aH-bisindolinium[3,2-a,3'2'-a']pyrano[3,2-c,5,6-c']dipyridin-5-ium dye (NHS ester used for labelling); {C7NH2-CompoundIII} = C7 amino linker labelled with Compound III NHS ester; pY = N[C@@H](Cc1ccc(OP(=O)(O)O)cc1)C(=O)O

Columns and labels:
[1] = Comparison of spectral properties of rigidized Cy3 and open chain Cy3 dyes; type: physicochemical
Excerpt: The spectral properties of the rigidized dye were compared with the known open chain Cy3.18.OH and Cy3.10.OH dyes (FIG. 2). The absorption maxima of the rigid dye shifted to the red by 12 nm in methanol and as expected it is 10-12 time brighter that the non-rigidized indocyanines.

[2] = target: Grb2 glutathione-S-transferase fusion protein (Homo sapiens, UniProt P62993); assay: Protein:peptide polarization binding assay; settings: non-specific binding defined with 100 μM unlabelled peptide, 60 minutes
Chain of Grb2 glutathione-S-transferase fusion protein (P62993 whole entry, the tested form may be a part): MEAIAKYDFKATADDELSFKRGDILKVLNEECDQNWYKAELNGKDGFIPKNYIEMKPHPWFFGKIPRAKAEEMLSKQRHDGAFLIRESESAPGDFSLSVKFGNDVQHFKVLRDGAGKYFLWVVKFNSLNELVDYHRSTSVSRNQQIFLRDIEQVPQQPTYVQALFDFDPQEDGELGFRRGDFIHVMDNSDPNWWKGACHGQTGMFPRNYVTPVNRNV
Description: A peptide of sequence E-pY-I-N-Q-S-V-P-K (E9K) was prepared by solid phase synthesis on an Applied Biosystems 431A peptide synthesizer using standard methods and materials. An excess of 6,7,9,10-tetrahydro-2-carboxymethyl-14-sulphonato-16,16,18,18-tetramethyl-7aH,8aH-bisindolinium[3,2-a;3′2′-a′]pyrano[3,2-c;5,6-c′]dipyridin-5-ium (Compound III), N-hydroxysuccinimide ester was coupled in DMSO in the presence of diisopropylethylamine to the free N-terminus of the protected peptide whilst still attached to the solid phase. After deprotection for two hours, the crude labelled peptide was purified by reverse phase HPLC, using a gradient from water/0.1%TFA to water:acetonitrile (40:60)/0.1%TFA over 60 minutes.
Various concentrations of Grb2 glutathione-S-transferase fusion protein and E9K labelled with Compound III in 20 mM MOPS pH7.4/10 mM DTT/005% Tween 20 were incubated in a final volume of 150 μl in black 96-well microplates (Dynatech) for 60 minutes. […] Polarization values were read on a Fluorolite FPM2™ plate reader (Jolley Research and Consulting Inc.) using a 530DF30 filter for excitation and 590DF45 filter for emission.

[3] = test system: complementary probe oligonucleotide; assay: Nucleic acid FRET hybridization assay; type: binding; settings: 560 nm excitation, 670 nm emission
Description: The oligonucleotides were deprotected for 17 hours at 40° C. and purified by reverse phase HPLC using a C18 column and a 40% TEAA/acetonitrile gradient. The desired peaks were collected, freeze dried and the samples were resuspended in sterile H2O.
Amino modified target and probe oligonucleotides were incubated with a 10-fold molar excess of 6,7,9,10-tetrahydro-2-carboxymethyl-14-sulphonato-16,16,18,18-tetramethyl-7aH,8aH-bisindolinium[3,2-a;3′2′-a′]pyrano[3,2-c;5,6-c′]dipyridin-5-ium (Compound III), N-hydroxysuccinimide ester and Cy5 NHS-ester dye (Amersham Pharmacia Biotech) respectively, in 0.1M sodium bicarbonate buffer (pH9), overnight at 22° C. The following morning, the oligonucleotides were ethanol precipitated and the resulting pellets were resuspended in H2O. […] Residues were resuspended into H2O and concentration of recovered material was determined.
Wells of a black, streptavidin coated 96-well plate were coated with either unlabelled or Compound III-labelled target oligonucleotides (20 pmol/well diluted in 100 μl PBS/1 MgCl2) for 120 minutes at ambient temperature. […] Finally, wells were washed vigorously with PBS and fluorescence intensity was measured on a fluorescence plate reader using a 560 nm excitation filter and a 670 nm emission filter (FIG. 7).

[4] = test system: NF-kB-specific double stranded (ds) DNA; assay: Protein:DNA FRET binding assay; settings: competitor 200 pmol/well (10 fold molar excess for p65), Ex520/Em670
Description: All HPLC purified NF-kB-specific oligonucleotides were obtained from Genosys Biotechnologies Ltd: a coding strand modified with a 5′ terminal primary amine (5′ NH2-[…] 3′) and an unmodified non-coding strand (5′ […] 3′). A 10-fold molar excess of Cy-5-NHS ester dye (Amersham Pharmacia Biotech) was incubated with the coding strand, in 0.1M sodium bicarbonate buffer (pH9), overnight at 22° C. The following morning the oligonucleotide was ethanol precipitated and then resuspended in water. The labelled coding strand was purified by reverse phase HPLC using a C18 column and a 60% TEAA/acetonitrile gradient. The peak containing labelled oligonucleotide was freeze dried and resuspended in water.
NF-kB-specific double stranded (ds) DNA was generated by incubating together equimolar amounts of the Cy-5 labelled coding strand (5′ Cy5-[…] […] 3′) and the unmodified non-coding strand (5′ […] […] 3′) in a boiling water bath for 3 minutes and allowing to anneal by cooling over 2 hours.
NF-kB p65 protein ([…]) was diluted to 1000 μl in 0.01M phosphate buffered saline. […]
A black microtitre plate (Dynatech) was used for the FRET assay. […] The plate was read at Ex520/Em670 in the Biolumin 960 fluorescence microplate reader (Molecular Dynamics Inc.).

NF-kB-specific dsDNA = assay: Protein:DNA direct intensity binding assay; settings: competitor 200 pmol/well (40 fold molar excess for p65) versus p65GST
Description: All HPLC purified oligonucleotides were obtained from Genosys Biotechnologies Ltd. Equimolar amounts of a biotinylated coding strand (5′ Biotin-[…] CCGCG 3′) and an unmodified non-coding strand (5′ […] 3′) specific for NF-kB were incubated together in a boiling water bath for 3 minutes and allowed to anneal by cooling over 2 hours.
Anti-GST antibody (3 mg/ml, 1.5 mg supplied/vial (0.5 ml) from Molecular Probes) was dialysed against 1 litre of 0.15M sodium chloride for 4 hours at room temperature and dialysis was continued overnight at 4° C. in a fresh solution of 0.15M sodium chloride. The following morning the antibody was dialysed against 1 litre of 0.1M sodium hydrogen carbonate for a maximum of 4 hours.
A 1 mg/ml solution of 6,7,9,10-tetrahydro-2-carboxymethyl-14-sulphonato-16,16,18,18-tetramethyl-7aH,8aH-bisindolinium[3,2-a;3′2′-a′]pyrano[3,2-c;5,6-c′]dipyridin-5-ium (Compound III), N-hydroxysuccinimide ester in DMSO was added gradually with stirring to the antibody at a ratio of 0.10 mg dye: 0.33 mg antibody. […]
Biotin-labelled NF-kB-specific dsDNA (2.5 pmol, diluted in 0.01 MMgCl2) was added to each well (final volume, 100 μl) of a 96-well streptavidin coated microplate (Boehringer Mannheim) and incubated at room temperature for 2 hours. […] The plate was read at Ex535/Em569 and Ex560/595 in the Biolumin 960 fluorescence microplate reader (Molecular Dynamics Inc.).

## CC1(C)C2=C3C=C4C5=[N+](CCC4OC3CCN2c2ccc(CC(=O)O)cc21)c1ccc(CC(=O)O)cc1C5(C)C (centres unmarked) [Compound I, 6,7,9,10-Tetrahydro-2,14-carboxymethyl-16,16,18,18-tetramethyl-7aH,8aH-bisindolinium[3,2-a;3′2′-a′]pyrano[3,2-c;5,6-c′]dipyridin-5-ium]
[1]; dye in methanol
  QY (Φ): 0.8
  λmax: 565
[1]; in methanol, versus open chain Cy3 dyes
  absorption maxima shifted to the red: 12 nm
[1]; versus non-rigidized indocyanines
  brightness relative to the non-rigidized indocyanines: 10-12 time

## Compound III-labelled peptide: peptide E-pY-I-N-Q-S-V-P-K (E9K) labelled at the free N-terminus with Compound III ({Compound III}-E[pY]INQSVPK)
[2]
  binding to Grb2 protein as determined by change in polarization: specific binding

## Compound III-labelled target oligonucleotide: 5′ C7 amino-modified TAC CCA GAC GAG CAA-biotin 3′ labelled with Compound III NHS ester (DNA TACCCAGACGAGCAA; DNA, 5' {C7NH2-CompoundIII}, 3' {Biotin}, backbone not given here)
[3]; incubated with Cy5-labelled probe
  fluorescence signal (FRET): strong fluorescence signal
[3]; incubated with unlabelled probe
  fluorescence signal (FRET): low fluorescence signals

## casein
[4]
  reduction of the total signal: no effect
NF-kB-specific dsDNA
  reduction of the total signal: 25%

## p65: NF-kB p65 protein, specific competitor
[4]
  reduction of the total signal: 40%
NF-kB-specific dsDNA
  reduction of the total signal: approximately 90%
